In patent publication US20260365670A1, “EGFR INHIBITORS AND USES THEREOF” (DIZAL (JIANGSU) PHARMACEUTICAL CO., LTD., priority 2022, published 2026):
Read-outs that look alike come from different tables or passages of the source.

Experiments:
[1] = tested on: Ba/F3 cells expressing EGFR mutations; experiment: Cell proliferation assay, Ba/F3 cells expressing EGFR mutations (CellTiter-Glo, 72 hours); type: cell-based; settings: CellTiter-Glo
How it was run: (§1)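 Ba/F3 cells carrying EGFR mutants (5000/well) or PC-9 cells (500/well) in RPMI1640 were dosed with compound series after overnight attachment and grown 72 h. Viability read by CellTiter-Glo, with day-0 counts subtracted; GI50 from curve fits of % proliferation versus DMSO control.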

A-431 = experiment: Cell proliferation GI50, A-431 cells (Table 6); type: cell-based
[2] = biological target: T1, EGFR[T790M/C797S/d746-750] (Homo sapiens, UniProt P00533, C797S/DEL746-750/T790M); experiment: Inhibition of EGFR[T790M/C797S/d746-750] biochemical enzymatic activity (HTRF); settings: EGFR T790M-C797S-Del19, 1 mM ATP, 1 h, room temperature, read-out: IC50 (nM) @T790M - C797S - Del19
T1 construct: purchased Carna Bio
T1 sequence (P00533 with tags, fused parts or gaps DEL746-750/T790M/C797S limits assumed): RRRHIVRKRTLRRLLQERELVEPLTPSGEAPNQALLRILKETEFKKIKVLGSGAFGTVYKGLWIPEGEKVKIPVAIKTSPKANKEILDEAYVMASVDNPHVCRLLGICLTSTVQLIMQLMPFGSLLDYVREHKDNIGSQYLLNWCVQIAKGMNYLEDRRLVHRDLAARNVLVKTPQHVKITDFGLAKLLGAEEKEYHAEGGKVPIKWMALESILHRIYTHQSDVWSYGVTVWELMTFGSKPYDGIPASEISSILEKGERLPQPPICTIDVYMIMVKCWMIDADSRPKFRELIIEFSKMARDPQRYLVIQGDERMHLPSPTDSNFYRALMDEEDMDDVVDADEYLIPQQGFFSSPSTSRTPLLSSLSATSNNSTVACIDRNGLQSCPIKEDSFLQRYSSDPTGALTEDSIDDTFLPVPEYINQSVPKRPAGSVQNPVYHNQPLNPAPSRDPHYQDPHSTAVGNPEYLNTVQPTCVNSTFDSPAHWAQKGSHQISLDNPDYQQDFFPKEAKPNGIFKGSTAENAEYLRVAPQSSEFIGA
How it was run: (§2)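 Using a high ATP level (1 mM), wild-type and mutant EGFR enzymes were incubated 1 h at room temperature with inhibitor and 1 μM biotinylated TK substrate. Phosphorylation was quantified as the 665/615 nm HTRF ratio. IC50s were derived by logistic fitting.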

PC-9 = experiment: Cell proliferation assay, PC-9 cells (CellTiter-Glo, 72 hours); type: cell-based; settings: PC9 cells, CellTiter-Glo, read-out: PC9 GI50
How it was run: as §1

EGFR L858R = biological target: T2, EGFR L858R (Homo sapiens, UniProt P00533, L858R); experiment: Inhibition of EGFR L858R biochemical enzymatic activity (HTRF); settings: 1 mM ATP, 1 h, room temperature, read-out: IC50 (nM) @L858R
T2 construct: purchased Carna Bio
How it was run: as §2

EGFR Exon19Del = biological target: T3, EGFR Exon19Del (Homo sapiens, UniProt P00533, DEL746-750); experiment: Inhibition of EGFR Exon19Del biochemical enzymatic activity (HTRF); settings: EGFR Del19, 1 mM ATP, 1 h, room temperature, read-out: IC50 @Del19
T3 construct: purchased Carna Bio
T3 sequence (P00533 with tags, fused parts or gaps DEL746-750 limits assumed): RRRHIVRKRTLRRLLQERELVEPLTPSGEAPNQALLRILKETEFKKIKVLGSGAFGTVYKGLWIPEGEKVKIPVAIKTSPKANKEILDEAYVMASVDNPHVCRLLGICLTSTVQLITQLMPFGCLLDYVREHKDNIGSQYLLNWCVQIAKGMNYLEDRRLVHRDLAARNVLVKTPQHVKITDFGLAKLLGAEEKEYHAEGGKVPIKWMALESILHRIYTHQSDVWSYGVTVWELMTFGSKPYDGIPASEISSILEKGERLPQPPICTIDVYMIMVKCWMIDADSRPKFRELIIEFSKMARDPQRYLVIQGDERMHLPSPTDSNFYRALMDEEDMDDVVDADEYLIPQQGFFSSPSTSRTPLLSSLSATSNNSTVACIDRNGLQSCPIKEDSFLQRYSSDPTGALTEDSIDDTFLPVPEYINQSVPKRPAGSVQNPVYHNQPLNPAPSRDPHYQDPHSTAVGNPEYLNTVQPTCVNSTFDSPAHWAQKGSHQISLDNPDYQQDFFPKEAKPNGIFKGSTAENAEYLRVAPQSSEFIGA
How it was run: as §2

EGFR[T790M/C797S/L858R] = biological target: T4, EGFR[T790M/C797S/L858R] (Homo sapiens, UniProt P00533, C797S/L858R/T790M); experiment: Inhibition of EGFR[T790M/C797S/L858R] biochemical enzymatic activity (HTRF); settings: EGFR T790M-C797S-L858R, 1 mM ATP, 1 h, room temperature, read-out: IC50 (nM) @T790M- C797S - L858R
T4 construct: purchased Carna Bio
T4 sequence (P00533 25-1210 T790M/C797S/L858R): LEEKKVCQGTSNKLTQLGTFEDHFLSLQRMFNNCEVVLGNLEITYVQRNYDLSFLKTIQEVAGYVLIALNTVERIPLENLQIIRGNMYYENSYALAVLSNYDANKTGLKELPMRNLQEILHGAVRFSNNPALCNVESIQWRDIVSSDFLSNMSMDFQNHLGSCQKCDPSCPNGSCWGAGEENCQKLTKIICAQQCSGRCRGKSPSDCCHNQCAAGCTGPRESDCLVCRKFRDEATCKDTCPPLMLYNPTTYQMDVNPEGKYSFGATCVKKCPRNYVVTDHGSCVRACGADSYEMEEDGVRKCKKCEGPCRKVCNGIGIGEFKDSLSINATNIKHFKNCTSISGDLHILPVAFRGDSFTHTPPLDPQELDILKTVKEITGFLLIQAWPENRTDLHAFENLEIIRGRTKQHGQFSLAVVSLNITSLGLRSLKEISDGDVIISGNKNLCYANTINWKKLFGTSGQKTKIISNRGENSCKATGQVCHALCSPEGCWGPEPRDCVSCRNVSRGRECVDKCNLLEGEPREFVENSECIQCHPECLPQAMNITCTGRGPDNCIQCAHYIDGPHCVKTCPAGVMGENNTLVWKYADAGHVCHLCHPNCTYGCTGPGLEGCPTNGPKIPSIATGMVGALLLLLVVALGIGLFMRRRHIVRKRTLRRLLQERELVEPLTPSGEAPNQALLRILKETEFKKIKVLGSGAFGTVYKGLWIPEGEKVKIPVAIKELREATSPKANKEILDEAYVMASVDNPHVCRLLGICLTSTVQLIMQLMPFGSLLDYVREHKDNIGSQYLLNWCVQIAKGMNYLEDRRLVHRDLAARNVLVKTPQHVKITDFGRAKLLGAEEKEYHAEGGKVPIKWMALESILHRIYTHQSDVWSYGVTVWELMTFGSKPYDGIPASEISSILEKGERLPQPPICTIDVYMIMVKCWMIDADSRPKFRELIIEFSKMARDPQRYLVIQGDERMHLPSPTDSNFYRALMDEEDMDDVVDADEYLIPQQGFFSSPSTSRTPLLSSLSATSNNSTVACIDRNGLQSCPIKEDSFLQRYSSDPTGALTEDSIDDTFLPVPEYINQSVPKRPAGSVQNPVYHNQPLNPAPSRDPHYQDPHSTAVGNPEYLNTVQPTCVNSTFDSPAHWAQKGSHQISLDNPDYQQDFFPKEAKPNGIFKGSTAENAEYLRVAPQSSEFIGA
How it was run: as §2

EGFR (C797S L858R) = biological target: T5, EGFR (C797S L858R) (Homo sapiens, UniProt P00533, C797S/L858R); experiment: Inhibition of EGFR (C797S L858R) biochemical enzymatic activity (HTRF); settings: EGFR L858-C797S, 1 mM ATP, 1 h, room temperature, read-out: IC50 (nM) @L858-C797S
T5 construct: purchased signalchem
T5 sequence (P00533 25-1210 C797S/L858R): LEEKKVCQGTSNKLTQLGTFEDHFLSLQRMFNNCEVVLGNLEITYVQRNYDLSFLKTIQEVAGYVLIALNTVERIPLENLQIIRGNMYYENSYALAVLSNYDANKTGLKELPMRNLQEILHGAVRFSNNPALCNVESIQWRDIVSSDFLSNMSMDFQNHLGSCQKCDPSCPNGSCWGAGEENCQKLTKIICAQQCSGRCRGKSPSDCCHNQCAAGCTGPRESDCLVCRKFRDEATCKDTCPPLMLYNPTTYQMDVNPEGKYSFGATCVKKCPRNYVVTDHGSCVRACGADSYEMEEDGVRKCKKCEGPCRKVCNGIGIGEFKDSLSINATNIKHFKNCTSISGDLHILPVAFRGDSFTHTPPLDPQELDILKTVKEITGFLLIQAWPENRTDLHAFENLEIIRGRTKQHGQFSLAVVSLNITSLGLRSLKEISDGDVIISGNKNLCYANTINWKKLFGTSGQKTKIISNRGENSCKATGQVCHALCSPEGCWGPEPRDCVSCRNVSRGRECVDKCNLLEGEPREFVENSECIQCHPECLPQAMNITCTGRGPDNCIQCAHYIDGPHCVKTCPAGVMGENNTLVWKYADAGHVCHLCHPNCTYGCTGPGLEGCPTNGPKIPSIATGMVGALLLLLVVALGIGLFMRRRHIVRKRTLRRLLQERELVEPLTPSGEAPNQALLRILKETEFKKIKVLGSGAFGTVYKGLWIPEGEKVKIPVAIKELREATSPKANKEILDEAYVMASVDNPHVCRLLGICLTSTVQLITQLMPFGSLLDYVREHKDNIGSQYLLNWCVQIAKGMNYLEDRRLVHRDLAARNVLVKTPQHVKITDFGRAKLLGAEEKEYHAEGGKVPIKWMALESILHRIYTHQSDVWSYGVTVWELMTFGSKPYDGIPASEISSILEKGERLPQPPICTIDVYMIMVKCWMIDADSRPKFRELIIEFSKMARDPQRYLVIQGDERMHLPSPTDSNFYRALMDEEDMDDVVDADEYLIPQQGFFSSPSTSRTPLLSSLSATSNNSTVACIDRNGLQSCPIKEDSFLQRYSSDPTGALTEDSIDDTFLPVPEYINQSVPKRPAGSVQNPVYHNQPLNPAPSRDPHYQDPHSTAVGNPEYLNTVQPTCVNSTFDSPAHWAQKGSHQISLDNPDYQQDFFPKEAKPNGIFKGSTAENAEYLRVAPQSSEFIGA
How it was run: as §2

EGFR wild type = biological target: T6, EGFR wild type (Homo sapiens, UniProt P00533); experiment: Inhibition of EGFR wild type biochemical enzymatic activity (HTRF); settings: EGFR WT, 1 mM ATP, 1 h, room temperature, read-out: IC50 (nM) @WT
T6 construct: purchased Carna Bio
How it was run: as §2

EGFR (d746-750 C797S) = biological target: T7, EGFR (d746-750 C797S) (Homo sapiens, UniProt P00533, C797S/DEL746-750); experiment: Inhibition of EGFR (d746-750 C797S) biochemical enzymatic activity (HTRF); settings: EGFR Del19-C797S, 1 mM ATP, 1 h, room temperature, read-out: IC50 (nM) @Del19-C797S
T7 construct: purchased signalchem
T7 sequence (P00533 with tags, fused parts or gaps DEL746-750/C797S limits assumed): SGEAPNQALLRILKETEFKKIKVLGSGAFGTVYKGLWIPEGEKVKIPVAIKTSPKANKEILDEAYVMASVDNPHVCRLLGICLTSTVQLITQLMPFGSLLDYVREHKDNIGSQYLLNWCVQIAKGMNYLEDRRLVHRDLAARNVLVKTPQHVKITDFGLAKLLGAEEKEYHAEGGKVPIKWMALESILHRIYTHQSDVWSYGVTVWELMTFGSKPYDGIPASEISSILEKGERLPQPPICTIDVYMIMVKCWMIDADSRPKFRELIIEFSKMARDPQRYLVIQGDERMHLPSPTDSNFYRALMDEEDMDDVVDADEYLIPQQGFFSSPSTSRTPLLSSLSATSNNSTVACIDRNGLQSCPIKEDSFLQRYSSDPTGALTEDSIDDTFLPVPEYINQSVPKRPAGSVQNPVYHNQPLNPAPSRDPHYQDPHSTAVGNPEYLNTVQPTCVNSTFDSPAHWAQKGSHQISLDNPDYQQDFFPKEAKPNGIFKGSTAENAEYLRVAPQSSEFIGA
How it was run: as §2

EGFR Exon19Del/T790M = biological target: T8, EGFR Exon19Del/T790M (Homo sapiens, UniProt P00533, DEL746-750/T790M); experiment: Inhibition of EGFR Exon19Del/T790M biochemical enzymatic activity (HTRF); settings: EGFR Del19-T790M, 1 mM ATP, 1 h, room temperature, read-out: IC50 (nM) @Del19-T790M
T8 construct: purchased Carna Bio
T8 sequence (P00533 with tags, fused parts or gaps DEL746-750/T790M limits assumed): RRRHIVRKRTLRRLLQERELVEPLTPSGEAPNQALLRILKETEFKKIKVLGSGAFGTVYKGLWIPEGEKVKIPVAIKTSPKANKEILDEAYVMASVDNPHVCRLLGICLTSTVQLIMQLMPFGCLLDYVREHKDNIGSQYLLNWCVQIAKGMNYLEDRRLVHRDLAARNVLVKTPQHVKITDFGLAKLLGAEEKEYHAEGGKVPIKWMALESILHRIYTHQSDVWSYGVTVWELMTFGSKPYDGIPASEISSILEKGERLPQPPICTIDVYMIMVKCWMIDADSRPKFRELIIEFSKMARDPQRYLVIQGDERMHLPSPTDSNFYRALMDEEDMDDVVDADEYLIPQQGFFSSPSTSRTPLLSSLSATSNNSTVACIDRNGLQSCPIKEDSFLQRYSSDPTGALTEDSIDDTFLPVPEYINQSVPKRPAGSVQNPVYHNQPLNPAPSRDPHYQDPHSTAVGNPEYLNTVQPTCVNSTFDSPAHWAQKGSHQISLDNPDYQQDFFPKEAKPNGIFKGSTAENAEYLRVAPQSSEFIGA
How it was run: as §2

EGFR L858R/T790M = biological target: T9, EGFR L858R/T790M (Homo sapiens, UniProt P00533, L858R/T790M); experiment: Inhibition of EGFR L858R/T790M biochemical enzymatic activity (HTRF); settings: EGFR L858R-T790M, 1 mM ATP, 1 h, room temperature, read-out: IC50 (nM) @L858R-T790M
T9 construct: purchased Carna Bio
How it was run: as §2

[3] = BaF3 cells, EGFR DEL19-C797S, read-out: DEL19-C797S/BaF3 GI50
[4] = BaF3 cells, EGFR DEL19-T790-C797S, read-out: DEL19-T790-C797S/BaF3 GI50
[5] = BaF3 cells, EGFR L858R, read-out: L858R/BaF3 GI50
[6] = BaF3 cells, EGFR L858R-C797S, read-out: L858R-C797S/BaF3 GI50
[7] = BaF3 cells, EGFR L858R-T790-C797S, read-out: L858R-T790-C797S/BaF3 GI50
[8] = BaF3 cells, EGFR L858R-T790M, read-out: L858R-T790M/BaF3 GI50
[9] = EGFR DEL19-T790M, read-out: DEL19-T790M GI50
[10] = Mus musculus, BaF3, 72 h, BaF3 cells, EGFR DEL19-C797S, read-out: DEL19-C797S/BaF3 GI50
[11] = Mus musculus, BaF3, 72 h, BaF3 cells, EGFR DEL19-T790-C797S, read-out: DEL19-T790-C797S/BaF3 GI50
[12] = Mus musculus, BaF3, 72 h, BaF3 cells, EGFR L858R, read-out: L858R/BaF3 GI50
[13] = Mus musculus, BaF3, 72 h, BaF3 cells, EGFR L858R-C797S, read-out: L858R-C797S/BaF3 GI50
[14] = Mus musculus, BaF3, 72 h, BaF3 cells, EGFR L858R-T790-C797S, read-out: L858R-T790-C797S/BaF3 GI50
[15] = Mus musculus, BaF3, 72 h, BaF3 cells, EGFR L858R-T790M, read-out: L858R-T790M/BaF3 GI50
[16] = Mus musculus, BaF3, 72 h, EGFR DEL19-T790M, read-out: DEL19-T790M GI50
[17] = Homo sapiens, A-431, A-431 cells

SMILES: Cn1ncc2c1OCCN1CC3CCC(C3)(C1)n1c(nc3ccc(N4CC(N5CCOCC5)C4)cc31)NC(=O)c1cc-2c(=O)n(C)c1 (single isomer, unassigned) [Example A69A]
- GI50 [1, 3]: 227 nM
- GI50 [1, 4]: 366 nM
- GI50 [1, 5]: 643 nM
- GI50 [1, 6]: 598 nM
- GI50 [1, 7]: 503 nM
- GI50 [1, 8]: 1530 nM
- GI50 [1, 9]: 465 nM
- GI50 (A-431; A-431 cells): 9380 nM
- IC50 [2]: > 5000 nM
- GI50 (PC-9): 723 nM
- IC50 (EGFR L858R): > 5000 nM
- IC50 (EGFR Exon19Del): 1200 nM
- IC50 (EGFR[T790M/C797S/L858R]): > 5000 nM
- IC50 (EGFR (C797S L858R)): > 5000 nM
- IC50 (EGFR wild type): > 5000 nM
- IC50 (EGFR (d746-750 C797S)): 1780 nM
- IC50 (EGFR Exon19Del/T790M): > 5000 nM
- IC50 (EGFR L858R/T790M): > 5000 nM

SMILES: Cn1ncc2c1OCCN1CCCCC(C)(C1)n1c(nc3ccc(N4CCOCC4)cc31)NC(=O)c1cc-2c(=O)n(C)c1 (stereo not drawn) [Example A13, 1,15,21-Trimethyl-5-(morpholin-4-yl)-23-oxa-2,9,11,15,20,21,26heptaazahexacyclo[24.4.1.1^{13,17}.0^{2,10}.0^{3,8}.0^{18,22}]dotriac onta-3,5,7,9,13,17(32),18(22),19-octaene-12,16-dione]
- GI50 [1, 10]: 148 nM
- GI50 [1, 11]: 192 nM
- GI50 [1, 12]: 234 nM
- GI50 [1, 13]: 232 nM
- GI50 [1, 14]: 280 nM
- GI50 [1, 15]: 411 nM
- GI50 [1, 16]: 192 nM
- GI50 (A-431; [17]): 357 nM
- IC50 [2]: 728 nM
- GI50 (PC-9; Homo sapiens, PC-9, 72 h): 292 nM
- IC50 (EGFR L858R): > 5000 nM
- IC50 (EGFR Exon19Del): 932 nM
- IC50 (EGFR[T790M/C797S/L858R]): > 5000 nM
- IC50 (EGFR (C797S L858R)): > 5000 nM
- IC50 (EGFR wild type): > 5000 nM
- IC50 (EGFR (d746-750 C797S)): 780 nM
- IC50 (EGFR Exon19Del/T790M): 757 nM
- IC50 (EGFR L858R/T790M): > 5000 nM

SMILES: CN1CCN(C2CCN(c3ccc4nc5n(c4c3)C34CCC(CN(CCOc6c(cnn6C)-c6cc(cn(C)c6=O)C(=O)N5)C3)C4)CC2)CC1 (single isomer, unassigned) [Example A106B]
- GI50 [1, 3]: 0.79 nM
- GI50 [1, 4]: 1.4 nM
- GI50 [1, 5]: 1.1 nM
- GI50 [1, 6]: 2.2 nM
- GI50 [1, 7]: 3 nM
- GI50 [1, 8]: 1.1 nM
- GI50 [1, 9]: 1.9 nM
- GI50 (A-431; A-431 cells): 732 nM
- IC50 [2]: 2 nM
- GI50 (PC-9): 7.6 nM
- IC50 (EGFR L858R): 1.8 nM
- IC50 (EGFR Exon19Del): 1.2 nM
- IC50 (EGFR[T790M/C797S/L858R]): 1.4 nM
- IC50 (EGFR (C797S L858R)): 2.2 nM
- IC50 (EGFR wild type): 4.1 nM
- IC50 (EGFR (d746-750 C797S)): 1 nM
- IC50 (EGFR Exon19Del/T790M): 2.2 nM
- IC50 (EGFR L858R/T790M): 2.2 nM

SMILES: Cn1ncc2c1OCCN1CC3CCC(C3)(C1)n1c(nc3ccc(N4CCOCC4)cc31)NC(=O)c1cc-2c(=O)n(C)c1 (single isomer, unassigned) [Example A62B, 15,21-Dimethyl-5-(morpholin-4-yl)-23-oxa-2,9,11,15,20,21,26-heptaazaheptacyclo[24.4.1.1^{1,28}.1^{13,17}.0^{2,10}.0^{3,8}.0^{18,22}]tritriaconta-3,5,7,9,13,17(33),18(22),19-octaene-12,16-dione]
- GI50 [1, 10]: 0.64 nM
- GI50 [1, 11]: 2.5 nM
- GI50 [1, 12]: 3.9 nM
- GI50 [1, 13]: 5.2 nM
- GI50 [1, 14]: 5.3 nM
- GI50 [1, 15]: 8.4 nM
- GI50 [1, 16]: 2.6 nM
- GI50 (A-431; [17]): 1070 nM
- IC50 [2]: 2.9 nM
- GI50 (PC-9; Homo sapiens, PC-9, 72 h): 10 nM
- IC50 (EGFR L858R): 45 nM
- IC50 (EGFR Exon19Del): 3.5 nM
- IC50 (EGFR[T790M/C797S/L858R]): 4.3 nM
- IC50 (EGFR (C797S L858R)): 19 nM
- IC50 (EGFR wild type): 809 nM
- IC50 (EGFR (d746-750 C797S)): 1.4 nM
- IC50 (EGFR Exon19Del/T790M): 2.8 nM
- IC50 (EGFR L858R/T790M): 6.3 nM

SMILES: CC(C)N1CCN(c2ccc3nc4n(c3c2)C23CCC(CN(CCOc5c(cnn5C)-c5cc(cn(C)c5=O)C(=O)N4)C2)C3)CC1 (single isomer, unassigned) [Example A108B]
- GI50 [1, 3]: 0.67 nM
- GI50 [1, 4]: 1 nM
- GI50 [1, 5]: 1 nM
- GI50 [1, 6]: 1.1 nM
- GI50 [1, 7]: 1.2 nM
- GI50 [1, 8]: 3.9 nM
- GI50 [1, 9]: 1.3 nM
- GI50 (A-431; A-431 cells): 320 nM
- IC50 [2]: 1.4 nM
- GI50 (PC-9): 4.6 nM
- IC50 (EGFR L858R): 1.9 nM
- IC50 (EGFR Exon19Del): 1 nM
- IC50 (EGFR[T790M/C797S/L858R]): 1.1 nM
- IC50 (EGFR (C797S L858R)): 1.5 nM
- IC50 (EGFR wild type): 7.7 nM
- IC50 (EGFR (d746-750 C797S)): 0.77 nM
- IC50 (EGFR Exon19Del/T790M): 1.7 nM
- IC50 (EGFR L858R/T790M): 1.3 nM
